Data reported in patent publication US6967196B1, “Sulfonamide compounds and uses thereof” (Bristol-Myers Squibb Company, priority 1999, dated 2005).
Counter-ions that a name gives are not always drawn. Like-named read-outs stand apart in the source and are kept apart here.

Tested on: amyloid β production in transfected H4 (human neuroglioma) cells stably expressing APP constructs
Experiment: In vitro cell-based assay of inhibitors of amyloid β production (ELISA)
Settings: approximately 16 hours incubation, amyloid β in medium by ELISA, read-out: ACTIVITY (IC50, inhibition of amyloid β production)
Summary of the method: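 Test agents are screened at 10-100 μM for about 16 hours on cells stably expressing wild-type or variant APP. Secreted Aβ is measured by ELISA and compared with control-treated cells.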

[1] = Homo sapiens, 16 h, transfected H4 cells stably expressing APP
[2] = transfected H4 cells stably expressing APP
[3] = Homo sapiens, 16 h, transfected H4 cells stably expressing APP constructs

| SMILES | IC50 [1] [nM] | IC50 [2] [nM] | other results |
| --- | --- | --- | --- |
| O=S(=O)(c1ccc(Cl)cc1)n1c(-c2ccccc2OCCCN2CCCCC2)c(Cl)c2ccccc21 [Example 1043, 3-chloro-1-[(4-chlorophenyl)sulfonyl]-2-{2-[3-(1-piperidinyl)propoxy]phenyl}-1H-indole trifluoroacetate] | > 500 | – | – |
| C[C@H](c1ccccc1OCCCBr)N(c1cc(F)ccc1F)S(=O)(=O)c1ccc(Cl)cc1 [Example 1045, N-{(1R)-1-[2-(3-bromopropoxy)phenyl]ethyl}-4-chloro-N-(2,5-difluorophenyl)benzenesulfonamide] | > 500 | – | – |
| CC(c1ccccc1OCCCn1ccnc1)N(c1cc(F)ccc1F)S(=O)(=O)c1ccc(Cl)cc1 (stereo not shown) [Example 1046, 4-chloro-N-(2,5-difluorophenyl)-N-(1-{2-[3-(1H-imidazol-1-yl)propoxy]phenyl}ethyl)benzenesulfonamide hydrochloride] | > 500 | – | – |
| CC(c1ccccc1OCCCn1ccnc1)N(c1cc(F)ccc1F)S(=O)(=O)c1ccc(Cl)cc1 (stereo not shown) [Example 1047, 4-chloro-N-(2,5-difluorophenyl)-N-(1-{2-[3-(1H-imidazol-1-yl)propoxy]phenyl}ethyl)benzenesulfonamide] | – | > 500 | – |
| C[C@@H](c1ccccc1OCCCn1ccnc1)N(c1cc(F)ccc1F)S(=O)(=O)c1ccc(Cl)cc1 [Example 1048, 4-chloro-N-(2,5-difluorophenyl)-N-((1S)-1-{2-[3-(1H-imidazol-1-yl)propoxy]phenyl}ethyl)benzenesulfonamide hydrochloride] | – | – | IC50 (transfected H4 cells stably expressing APP, hydrochloride): > 500 nM |
| O=S(=O)(c1ccc(Cl)cc1)N(Cc1ccccc1OCC[S+]([O-])C1CCCCC1)c1cc(F)ccc1F (stereo not shown) [Example 1050, 4-chloro-N-{2-[2-(cyclohexylsulfinyl)ethoxy]benzy}-N-(2,5-difluorophenyl)benzenesulfonamide] | – | > 500 | – |
| O=S(=O)(c1ccc(Cl)cc1)N(Cc1ccccc1C#CCn1ccnc1)c1cc(F)ccc1F [Example 1051, 4-chloro-N-(2,5-difluorophenyl)-N-{2-[3-(1H-imidazol-1-yl)-1-propynyl]benzyl}benzenesulfonamide hydrochloride] | > 500 | – | – |
| CC(c1ccccc1O)N(c1cc(F)ccc1F)S(=O)(=O)c1ccc(Cl)cc1 (stereo not shown) [Example 1052, 4-chloro-N-(2,5-difluorophenyl)-N-[1-(2-hydroxyphenyl)ethyl]benzenesulfonamide] | > 500 | – | – |
| O=S(=O)(c1ccc(Cl)cc1)N(Cc1ccccc1O)c1cc(F)ccc1F [Example 1054, 4-chloro-N-(2,5-difluorophenyl)-N-(2-hydroxybenzyl)benzenesulfonamide] | > 500 | – | – |
| C[C@H](c1ccccc1CCO)N(c1cc(F)ccc1F)S(=O)(=O)c1ccc(Cl)cc1 [Example 1055, 4-chloro-N-(2,5-difluorophenyl)-N-{(1R)-1-[2-(2-hydroxyethyl)phenyl]ethyl}benzenesulfonamide] | > 500 | – | – |
| C[C@H](c1ccccc1CCCn1ccnc1)N(c1cc(F)ccc1F)S(=O)(=O)c1ccc(Cl)cc1 [Example 1056, 4-chloro-N-(2,5-difluorophenyl)-N-((1R)-1-{2-[3-(1H-imidazol-1-yl)propyl]phenyl}ethyl)benzenesulfonamide hydrochloride] | > 500 | – | – |
| C[C@H](c1ccccc1OCCCN(C)C(=O)C(C)(C)C)N(c1cc(F)ccc1F)S(=O)(=O)c1ccc(Cl)cc1 [Example 1059, N-{3-[2-((1R)-1-{[(4-chlorophenyl)sulfonyl]-2,5-difluoroanilino}ethyl)phenoxy]propyl}-N,2,2-trimethylpropanamide] | > 500 | – | – |
| C[C@H](c1ccccc1OCCCN1CCCCC1)N(c1cc(F)ccc1F)S(=O)(=O)c1ccc(Cl)cc1 [Example 1061, 4-chloro-N-(2,5-difluorophenyl)-N-((1R)-1-{2-[3-(1-piperidinyl)propoxy]phenyl}ethyl)benzenesulfonamide hydrochloride] | > 500 | – | – |
| C[C@H](c1ccccc1OCCCN1CCCCC1)N(c1cc(Cl)ccc1CO)S(=O)(=O)c1ccc(Cl)cc1 [Example 1062, 4-chloro-N-[5-chloro-2-(hydroxymethyl)phenyl]-N-((1R)-1-{2-[3-(1-piperidinyl)propoxy]phenyl}ethyl)benzenesulfonamide hydrochloride] | > 500 | – | – |
| C[C@H](c1ccc(F)cc1CCCO)N(c1cc(F)ccc1F)S(=O)(=O)c1ccc(Cl)cc1 [Example 1063, 4-chloro-N-(2,5-difluorophenyl)-N-((1R)-1-[4-fluoro-2-(3-hydroxypropyl)phenyl]ethyl}benzenesulfonamide] | > 500 | – | – |
| C[C@H](c1ccccc1CCCn1cncn1)N(c1cc(F)ccc1F)S(=O)(=O)c1ccc(Cl)cc1 [Example 1066, 4-chloro-N-(2,5-difluorophenyl)-N-((1R)-1-{2-[3-(1H-1,2,4-triazol-1-yl)propyl]phenyl}ethyl)benzenesulfonamide] | > 500 | – | – |
| C[C@H](c1ccc(F)cc1CCCC(=O)O)N(c1cc(F)ccc1F)S(=O)(=O)c1ccc(Cl)cc1 [Example 1067, 4-[2-((1R)-1-{[(4-chlorophenyl)sulfonyl]-2,5-difluoroanilino}ethyl)-5-fluorophenyl]butanoic acid] | – | > 500 | – |

| SMILES | IC50 [1] [nM] | IC50 [2] [nM] | other results |
| --- | --- | --- | --- |
| C[C@H](c1ccc(F)cc1CCCC(=O)O)N(c1cc(F)ccc1F)S(=O)(=O)c1ccc(Cl)cc1 [Example 1068, 4-[2-((1R)-1-{[(4-chlorophenyl)sulfonyl]-2,5-difluoroanilino}ethyl)-5-fluorophenyl]butanoic acid] | – | > 500 | – |
| C[C@H](c1ccc(F)cc1CCCC(=O)O)N(c1cc(F)ccc1F)S(=O)(=O)c1ccc(Cl)cc1 [Example 1069, 4-[2-((1R)-1-{[(4-chlorophenyl)sulfonyl]-2,5-difluoroanilino}ethyl)-5-fluorophenyl]butanoic acid] | – | > 500 | – |
| C[C@H](c1ccc(F)cc1CCCCS(=O)(=O)N1CCS(=O)(=O)CC1)N(c1cc(F)ccc1F)S(=O)(=O)c1ccc(Cl)cc1 [Example 1071] | – | > 500 | – |
| C[C@H](c1ccc(F)cc1CCCC(=O)O)N(c1cc(F)ccc1F)S(=O)(=O)c1ccc(Cl)cc1 [Example 1072, 4-[2-((1R)-1-{[(4-chlorophenyl)sulfonyl]-2,5-difluoroanilino}ethyl)-5-fluorophenyl]butanoic acid] | – | > 500 | – |
| C[C@H](c1ccc(F)cc1CCCC(=O)O)N(c1cc(F)ccc1F)S(=O)(=O)c1ccc(Cl)cc1 [Example 1073, 4-[2-((1R)-1-{[(4-chlorophenyl)sulfonyl]-2,5-difluoroanilino}ethyl)-5-fluorophenyl]butanoic acid] | – | > 500 | – |
| C[C@H](c1ccc(CCCCNS(C)(=O)=O)cc1)N(c1cc(F)ccc1F)S(=O)(=O)c1ccc(Cl)cc1 [Example 1074] | – | > 500 | – |
| C[C@@H](c1ccc(F)cc1CCCC(=O)O)N(c1cc(F)ccc1F)S(=O)(=O)c1ccc(Cl)cc1 [Example 1076, 4-[2-((1S)-1-{[(4-chlorophenyl)sulfonyl]-2,5-difluoroanilino}ethyl)-5-fluorophenyl]butanoic acid] | – | > 500 | – |
| C[C@H](c1ccc(F)cc1CCCC(=O)NN(C)C)N(c1cc(F)ccc1F)S(=O)(=O)c1ccc(Cl)cc1 [Example 1078, 4-chloro-N-(2,5-difluorophenyl)-N-((1R)-1-{2-[4-(2,2-dimethylhydrazino)-4-oxobutyl]-4-fluorophenyl}ethyl)benzenesulfonamide] | > 500 | – | – |
| C[C@H](c1ccc(F)cc1CCCC(=O)O)N(c1cc(F)ccc1F)S(=O)(=O)c1ccc(Cl)cc1 [Example 1080, 4-[2-((1R)-1-{[(4-chlorophenyl)sulfonyl]-2,5-difluoroanilino}ethyl)-5-fluorophenyl]butanoic acid] | – | > 500 | – |
| O=S(=O)(c1ccc(Cl)cc1)N(Cc1ccccc1O)c1ccccc1 [Example 1081, 4-chloro-N-(2-hydroxybenzyl)-N-phenylbenzenesulfonamide] | > 10000 | – | – |
| CN(C)CCCOc1ccccc1CN(c1ccccc1)S(C)(=O)=O [Example 1082, N-{2-[3-(dimethylamino)propoxy]benzyl}-N-phenylmethanesulfonamide] | > 10000 | – | – |
| CN(C)CCCOc1ccccc1CN(c1ccccc1)S(=O)(=O)c1ccc([N+](=O)[O-])cc1 [Example 1083, N-{2-[3-(dimethylamino)propoxy]benzyl}-4-nitro-N-phenylbenzenesulfonamide] | – | – | IC50 [3]: > 10000 nM |
| CN(C)CCCOc1ccccc1CN(c1ccccc1)S(=O)(=O)c1ccccc1[N+](=O)[O-] [Example 1084, N-{2-[3-(dimethylamino)propoxy]benzyl}-2-nitro-N-phenylbenzenesulfonamide] | – | – | IC50 [3]: > 10000 nM |
| CN(C)CCCOc1ccccc1CN(c1ccccc1)S(=O)(=O)c1cccc2c(N(C)C)cccc12 [Example 1085, 5-(dimethylamino)-N-{2-[3-(dimethylamino)propoxy]benzyl}-N-phenyl-1-naphthalenesulfonamide] | – | – | IC50 [3]: > 10000 nM |
| CC(C)(O)C#Cc1ccccc1CN(c1ccccc1)S(=O)(=O)c1ccc(Cl)cc1 [Example 1086, 4-chloro-N-[2-(3-hydroxy-3-methyl-1-butynyl)benzyl]-N-phenylbenzenesulfonamide] | – | – | IC50 [3]: > 10000 nM |
| C[Si](C)(C)C#Cc1ccccc1CN(c1ccccc1)S(=O)(=O)c1ccc(Cl)cc1 [Example 1087, 4-chloro-N-phenyl-N-{2-[(trimethylsilyl)ethynyl]benzyl}benzenesulfonamide] | – | – | IC50 (Homo sapiens, transfected H4 cells stably expressing APP constructs): > 10000 nM |
| O=S(=O)(c1ccccc1)N(Cc1ccccc1CCCO)c1ccccc1 [Example 1088, N-[2-(3-hydroxypropyl)benzyl]-N-phenylbenzenesulfonamide] | – | – | IC50 [3]: > 10000 nM |
